Biological target: T1, BenM (Acinetobacter baylyi, UniProt O68014)
T1 construct: expressed in transfected cells; host or cells: Saccharomyces cerevisiae CEN.PK113-5A, chromosomal integration; promoters TDH3p, TEF1p, RNR2p or REV1p
Experiment: CCM-induced GFP expression in yeast strains combining BenM expression cassettes and CYC1p reporter promoter variants (flow cytometry)
Type: cell-based, Saccharomyces cerevisiae
Settings: for FC (+/−CCM): 1.4 mM CCM
Source text: Strains, chemicals and media. Saccharomyces cerevisiae CEN.PK102-5B (MATa ura3-52 his3Δ1 leu2-3/112 MAL2-8^c SUC2), CEN.PK113-5A (MATa, trp1 his3Δ1 leu2-3/112 MAL2-8^c SUC2) and CEN.PK113-7D (wild type, MATa MAL2-8^c SUC2) strains were obtained from Peter Kotter (Johann Wolfgang Goethe-University Frankfurt, Germany). In principal any other yeast strains may be used, such as one obtained from public repository EuroScarf. EasyClone plasmids used in this work are described in Jensen, N. B. et al. EasyClone: method for iterative chromosomal integration of multiple genes in Saccharomyces cerevisiae. FEMS Yeast Res. 14, 238-48 (2014). Escherichia coli strain DH5a was used as a host for cloning and plasmid propagation. The chemicals and Pfu TURBO DNA polymerase were commercially obtained (Sigma-Aldrich and Agilent Technologies Inc., respectively). All acids used were >97% in purity. S. cerevisiae cells were grown at 30° C. in synthetic complete medium as well as drop-out media and agar plates were prepared using pre-mixed drop-out powders (Sigma-Aldrich). Mineral medium was freshly prepared as described previously. For all media containing diacids, 1.4 mM of the individual diacids were dissolved in mineral medium and pH adjusted to 4.5 before sterile filtration. For CCM several dilutions were made to examine the performance of the CCM biosensor. For naringenin, mineral medium was supplemented with 0, 0.05, 0.10 or 0.20 mM naringenin, dissolved in ethanol, the final ethanol concentration for each medium was 2% (v/v), and the final pH of the medium was adjusted to 6.0. E. coli cells were grown at 37° C. in Luria-Bertani (LB) medium supplemented with 100 μg/mL ampicillin.
Events were analyzed using FlowJo software (TreeStar Inc.).

T1 sequence (O68014 whole entry): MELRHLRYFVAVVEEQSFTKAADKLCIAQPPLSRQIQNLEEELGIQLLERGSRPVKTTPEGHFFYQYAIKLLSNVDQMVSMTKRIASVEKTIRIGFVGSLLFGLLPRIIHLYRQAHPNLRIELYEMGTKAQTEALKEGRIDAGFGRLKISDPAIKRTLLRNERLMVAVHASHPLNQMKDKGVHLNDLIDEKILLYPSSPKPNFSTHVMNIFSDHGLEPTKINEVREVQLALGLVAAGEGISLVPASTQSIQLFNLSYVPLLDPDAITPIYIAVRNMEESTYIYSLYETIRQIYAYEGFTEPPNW

O=C(O)/C=C\C=C/C(=O)O [CCM, cis, cis-muconic acid]
maximum induction of GFP output (chromosomally integrated BenM, 1.4 mM (200 mg/L) CCM, 24 h): 3.5 fold
increase in reporter output from all CYC1 promoters that harbored BenO (full-length CYC1p with BenO (T1, T2, T1/T2), BenM from TEF1p, 200 mg/L CCM, pH 4.5, 24 h): 1.3-2.2 fold
highest dynamic range (CCM-inducibility) (minimal promoters 249 bp_CYC1p_BenO_T1 and 209 bp_CYC1p_BenO_T1): 3.2-4.7 fold
change in reporter output from native CYC1p (native CYC1p, 200 mg/L CCM, pH 4.5, 24 h): no change
Mean fluorescense intensities of GFP (24 h), CCM (1.4 mM) (strain MeLS0020, TEF1p-BenM + 491bp_CYC1p_BenO_T2:GFP): 813
FC (+/−CCM) (strain MeLS0020, TEF1p-BenM + 491bp_CYC1p_BenO_T2:GFP, 24 h): 2.224
Mean fluorescense intensities of GFP (24 h), CCM (1.4 mM) (strain MeLS0021, TEF1p-BenM + 491bp_CYC1p_BenO_T1/T2:GFP): 2967
FC (+/−CCM) (strain MeLS0021, TEF1p-BenM + 491bp_CYC1p_BenO_T1/T2:GFP, 24 h): 2.184
Mean fluorescense intensities of GFP (24 h), CCM (1.4 mM) (strain MeLS0025, TEF1p-BenM + 209bp_CYC1p_BenO_T1:GFP): 4139
FC (+/−CCM) (strain MeLS0025, TEF1p-BenM + 209bp_CYC1p_BenO_T1:GFP, 24 h): 3.494
Mean fluorescense intensities of GFP (24 h), CCM (1.4 mM) (strain MeLS0026, TEF1p-BenM + 209bp_CYC1p_BenO_T2:GFP): 406
FC (+/−CCM) (strain MeLS0026, TEF1p-BenM + 209bp_CYC1p_BenO_T2:GFP, 24 h): 1.068
Mean fluorescense intensities of GFP (24 h), CCM (1.4 mM) (strain MeLS0027, TEF1p-BenM + 209bp_CYC1p_BenO_T1/T2:GFP): 1879
FC (+/−CCM) (strain MeLS0027, TEF1p-BenM + 209bp_CYC1p_BenO_T1/T2:GFP, 24 h): 3.394
Mean fluorescense intensities of GFP (24 h), CCM (1.4 mM) (strain MeLS0044, REV1p-BenM + 491bp_CYC1p_BenO_T2:GFP): 667
FC (+/−CCM) (strain MeLS0044, REV1p-BenM + 491bp_CYC1p_BenO_T2:GFP, 24 h): 1.524
Mean fluorescense intensities of GFP (24 h), CCM (1.4 mM) (strain MeLS0045, REV1p-BenM + 491bp_CYC1p_BenO_T1/T2:GFP): 1698
FC (+/−CCM) (strain MeLS0045, REV1p-BenM + 491bp_CYC1p_BenO_T1/T2:GFP, 24 h): 1.418
CCM-inducibility (strain MeLS0049, 209 bp_CYC1p_BenO_T1, BenM from REV1p): 3.8 fold
Mean fluorescense intensities of GFP (24 h), CCM (1.4 mM) (strain MeLS0049, REV1p-BenM + 209bp_CYC1p_BenO_T1:GFP): 880
FC (+/−CCM) (strain MeLS0049, REV1p-BenM + 209bp_CYC1p_BenO_T1:GFP, 24 h): 3.81
Mean fluorescense intensities of GFP (24 h), CCM (1.4 mM) (strain MeLS0050, REV1p-BenM + 209bp_CYC1p_BenO_T2:GFP): 182
FC (+/−CCM) (strain MeLS0050, REV1p-BenM + 209bp_CYC1p_BenO_T2:GFP, 24 h): 1.166
Mean fluorescense intensities of GFP (24 h), CCM (1.4 mM) (strain MeLS0051, REV1p-BenM + 209bp_CYC1p_BenO_T1/T2:GFP): 307
FC (+/−CCM) (strain MeLS0051, REV1p-BenM + 209bp_CYC1p_BenO_T1/T2:GFP, 24 h): 1.569
Mean fluorescense intensities of GFP (24 h), CCM (1.4 mM) (strain MeLS0070, RNR2p-BenM + 209bp_CYC1p_BenO_T1/T2:GFP): 356
FC (+/−CCM) (strain MeLS0070, RNR2p-BenM + 209bp_CYC1p_BenO_T1/T2:GFP, 24 h): 1.775
Mean fluorescense intensities of GFP (24 h), CCM (1.4 mM) (strain MeLS0079, TEF1p-BenM): 185
FC (+/−CCM) (strain MeLS0079, TEF1p-BenM, 24 h): 1.071
Mean fluorescense intensities of GFP (24 h), CCM (1.4 mM) (strain MeLS0081, REV1p-BenM): 175
FC (+/−CCM) (strain MeLS0081, REV1p-BenM, 24 h): 1.105
Mean fluorescense intensities of GFP (24 h), CCM (1.4 mM) (strain MeLS0139, REV1p-BenM + 491bp_CYC1p:GFP): 2231
FC (+/−CCM) (strain MeLS0139, REV1p-BenM + 491bp_CYC1p:GFP, 24 h): 0.9828
Mean fluorescense intensities of GFP (24 h), CCM (1.4 mM) (strain MeLS0140, REV1p-BenM + 272bp_CYC1p:GFP): 183
FC (+/−CCM) (strain MeLS0140, REV1p-BenM + 272bp_CYC1p:GFP, 24 h): 1.105
Mean fluorescense intensities of GFP (24 h), CCM (1.4 mM) (strain MeLS0141, REV1p-BenM + 249bp_CYC1p:GFP): 176
FC (+/−CCM) (strain MeLS0141, REV1p-BenM + 249bp_CYC1p:GFP, 24 h): 1.056
Mean fluorescense intensities of GFP (24 h), CCM (1.4 mM) (strain MeLS0142, REV1p-BenM + 209bp_CYC1p:GFP): 174
FC (+/−CCM) (strain MeLS0142, REV1p-BenM + 209bp_CYC1p:GFP, 24 h): 1.09
Mean fluorescense intensities of GFP (24 h), CCM (1.4 mM) (strain MeLS0143, REV1p-BenM + 491bp_CYC1p_BenO_T1:GFP): 5789
FC (+/−CCM) (strain MeLS0143, REV1p-BenM + 491bp_CYC1p_BenO_T1:GFP, 24 h): 1.088
Mean fluorescense intensities of GFP (24 h), CCM (1.4 mM) (strain MeLS0144, REV1p-BenM + 272bp_CYC1p_BenO_T1:GFP): 804
FC (+/−CCM) (strain MeLS0144, REV1p-BenM + 272bp_CYC1p_BenO_T1:GFP, 24 h): 2.381
Mean fluorescense intensities of GFP (24 h), CCM (1.4 mM) (strain MeLS0145, REV1p-BenM + 249bp_CYC1p_BenO_T1:GFP): 405
FC (+/−CCM) (strain MeLS0145, REV1p-BenM + 249bp_CYC1p_BenO_T1:GFP, 24 h): 1.953
Mean fluorescense intensities of GFP (24 h), CCM (1.4 mM) (strain MeLS0147, TDH3p-BenM + 272bp_CYC1p_BenO_T1:GFP): 4984
FC (+/−CCM) (strain MeLS0147, TDH3p-BenM + 272bp_CYC1p_BenO_T1:GFP, 24 h): 3.738
Mean fluorescense intensities of GFP (24 h), CCM (1.4 mM) (strain MeLS0148, TEF1p-BenM + 272bp_CYC1p_BenO_T1:GFP): 4032
FC (+/−CCM) (strain MeLS0148, TEF1p-BenM + 272bp_CYC1p_BenO_T1:GFP, 24 h): 3.463
Mean fluorescense intensities of GFP (24 h), CCM (1.4 mM) (strain MeLS0149, RNR2p-BenM + 272bp_CYC1p_BenO_T1:GFP): 854
FC (+/−CCM) (strain MeLS0149, RNR2p-BenM + 272bp_CYC1p_BenO_T1:GFP, 24 h): 2.313
Mean fluorescense intensities of GFP (24 h), CCM (1.4 mM) (strain MeLS0150, TDH3p-BenM + 209bp_CYC1p_BenO_T1:GFP): 4868
FC (+/−CCM) (strain MeLS0150, TDH3p-BenM + 209bp_CYC1p_BenO_T1:GFP, 24 h): 4.082
Mean fluorescense intensities of GFP (24 h), CCM (1.4 mM) (strain MeLS0151, RNR2p-BenM + 209bp_CYC1p_BenO_T1:GFP): 859
FC (+/−CCM) (strain MeLS0151, RNR2p-BenM + 209bp_CYC1p_BenO_T1:GFP, 24 h): 3.735
Mean fluorescense intensities of GFP (24 h), CCM (1.4 mM) (strain MeLS0152, TDH3p-BenM): 184
FC (+/−CCM) (strain MeLS0152, TDH3p-BenM, 24 h): 1.08
Mean fluorescense intensities of GFP (24 h), CCM (1.4 mM) (strain MeLS0153, RNR2p-BenM): 174
FC (+/−CCM) (strain MeLS0153, RNR2p-BenM, 24 h): 1.13
Mean fluorescense intensities of GFP (24 h), CCM (1.4 mM) (strain MeLS0156, TEF1p-BenM + 491bp_CYC1p:GFP): 3016
FC (+/−CCM) (strain MeLS0156, TEF1p-BenM + 491bp_CYC1p:GFP, 24 h): 0.9902
Mean fluorescense intensities of GFP (24 h), CCM (1.4 mM) (strain MeLS0157, TEF1p-BenM + 272bp_CYC1p:GFP): 198
FC (+/−CCM) (strain MeLS0157, TEF1p-BenM + 272bp_CYC1p:GFP, 24 h): 1.13
Mean fluorescense intensities of GFP (24 h), CCM (1.4 mM) (strain MeLS0158, TEF1p-BenM + 249bp_CYC1p:GFP): 175
FC (+/−CCM) (strain MeLS0158, TEF1p-BenM + 249bp_CYC1p:GFP, 24 h): 1.117
Mean fluorescense intensities of GFP (24 h), CCM (1.4 mM) (strain MeLS0159, TEF1p-BenM + 209bp_CYC1p:GFP): 177
FC (+/−CCM) (strain MeLS0159, TEF1p-BenM + 209bp_CYC1p:GFP, 24 h): 1.132
Mean fluorescense intensities of GFP (24 h), CCM (1.4 mM) (strain MeLS0160, RNR2p-BenM + 491bp_2YC1p:GFP): 2811
FC (+/−CCM) (strain MeLS0160, RNR2p-BenM + 491bp_2YC1p:GFP, 24 h): 1.071
Mean fluorescense intensities of GFP (24 h), CCM (1.4 mM) (strain MeLS0161, RNR2p-BenM + 272bp_CYC1p:GFP): 180
FC (+/−CCM) (strain MeLS0161, RNR2p-BenM + 272bp_CYC1p:GFP, 24 h): 1.049

— patent US20190185865A1, “USE OF PROKARYOTIC TRANSCRIPTIONAL ACTIVATORS AS METABOLITE BIOSENSORS IN EUKARYOTIC CELLS” (Danmarks Tekniske Universitet, priority 2016, published 2019)
